Measured values published in publication PMC6484444 (Analytical biochemistry, 2018).

Key:
[1] = biological target: ClpP1P2 (ClpP1) (Mycobacterium tuberculosis, UniProt P9WPC3+P9WPC5); type: biochemical
[2] = system: Nc1ncnc2c1ncn2[C@@H]1O[C@H](COP(=O)(O)OP(=O)(O)OP(=O)(O)O)[C@@H](O)[C@H]1O; assay: purified protein

Sequence of ClpP1P2 (ClpP1) (P9WPC5 whole entry, looked up): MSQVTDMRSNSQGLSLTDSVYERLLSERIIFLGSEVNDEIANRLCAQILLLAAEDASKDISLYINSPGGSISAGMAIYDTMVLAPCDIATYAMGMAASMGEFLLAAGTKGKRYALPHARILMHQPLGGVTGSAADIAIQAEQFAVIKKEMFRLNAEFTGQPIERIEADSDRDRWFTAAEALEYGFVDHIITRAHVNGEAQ
Sequence of ClpP1P2 (ClpP1) (P9WPC3 whole entry, looked up): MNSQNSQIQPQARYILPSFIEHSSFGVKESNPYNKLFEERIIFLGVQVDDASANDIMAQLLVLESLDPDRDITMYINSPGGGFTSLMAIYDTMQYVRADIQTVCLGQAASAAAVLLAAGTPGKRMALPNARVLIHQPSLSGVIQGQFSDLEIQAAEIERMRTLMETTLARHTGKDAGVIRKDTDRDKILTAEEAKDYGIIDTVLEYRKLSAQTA

`O=c1oc(Cl)c(Cl)c2ccccc12` [DCC, 3,4-Dichloroisocoumarin] was tested, and the IC50 [1] was 80 µM.
In the case of “ClpC1 (Mycobacterium tuberculosis H37Rv)”, the Km [2] is reported as 1400 ± 100 µM.
